Assay results from PubChem BioAssay AID330 (DTP/NCI, 2004).
“And” between values parts separate entries of the source, which are not always exact repeats. Identical values can stand only once. Toxic doses and inconclusive results are not listed.

System: P388 leukemia ip, CD2F1 mice, survival T/C
Test: NCI In Vivo Anticancer Drug Screen. Data for tumor model P388 Leukemia (intraperitoneal) in CD2F1 (CDF1) mice
Conditions: endpoint: median survival time, higher = longer survival
Summary of the method: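 Mice carrying the transplanted tumor received test compound or vehicle. Survival was recorded in each group, and the value is the treated-group measurement divided by that of the vehicle-treated control group.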

[1] = dose: 60.0 mg/kg/injection, schedule: Q01DX005 (ip), vehicle: saline with Tween-80
[2] = dose: 120.0 mg/kg/injection, schedule: Q01DX005 (ip), vehicle: saline with Tween-80
[3] = dose: 50.0 mg/kg/injection, schedule: Q01DX005 (ip), vehicle: Klucel (hydroxypropylcellulose) (HPC)
[4] = dose: 50.0 mg/kg/injection, schedule: Q01DX005 (ip), vehicle: saline
[5] = dose: 100.0 mg/kg/injection, schedule: Q01DX005 (ip), vehicle: Klucel (hydroxypropylcellulose) (HPC)
[6] = dose: 100.0 mg/kg/injection, schedule: Q01DX005 (ip), vehicle: saline
[7] = dose: 200.0 mg/kg/injection, schedule: Q01DX005 (ip), vehicle: Klucel (hydroxypropylcellulose) (HPC)
[8] = dose: 200.0 mg/kg/injection, schedule: Q01DX005 (ip), vehicle: saline
[9] = dose: 100.0 mg/kg/injection, schedule: Q01DX001 (ip), vehicle: saline
[10] = dose: 50.0 mg/kg/injection, schedule: Q01DX005 (ip), vehicle: saline with Tween-80
[11] = dose: 100.0 mg/kg/injection, schedule: Q01DX005 (ip), vehicle: saline with Tween-80
[12] = dose: 200.0 mg/kg/injection, schedule: Q01DX005 (ip), vehicle: saline with Tween-80

With `CC(C)(C)c1cc(C(C)(C)C)c2[n+]([O-])ssc1-2` as the molecule, how does the T/C (dose: 15.0 mg/kg/injection, schedule: Q01DX005 (ip), vehicle: saline with Tween-80) read?
The T/C was 120 % of control.

What about the T/C (dose: 30.0 mg/kg/injection, schedule: Q01DX005 (ip), vehicle: saline with Tween-80) of the same molecule?
Its T/C is 108 % of control.

And the T/C [1]?
The T/C was 113 % of control and 95 % of control.

What about the T/C [2] of the same molecule?
The T/C was 97 % of control.

How did the T/C [1] turn out when `COc1cccc(C(c2cc3c(cc2O)OCO3)N2CCOCC2)c1OC` (stereo unspecified) was run?
Its T/C is 119 % of control.

And the T/C [2]?
The T/C was 119 % of control.

What about the T/C (dose: 240.0 mg/kg/injection, schedule: Q01DX005 (ip), vehicle: saline with Tween-80) of the same molecule?
The T/C was 117 % of control.

`Cn1c(CCC(=O)O)c(CC(=O)O)c2ccccc21` was tested. Which T/C (dose: 100.0 mg/kg/injection, schedule: Q04DX002 (ip), vehicle: saline with Tween-80) did it give?
Its T/C is 99 % of control.

What about the T/C (dose: 200.0 mg/kg/injection, schedule: Q04DX002 (ip), vehicle: saline with Tween-80) of the same molecule?
The T/C was 97 % of control.

And the T/C (dose: 400.0 mg/kg/injection, schedule: Q04DX002 (ip), vehicle: saline with Tween-80)?
The T/C was 108 % of control.

For `CNC(=O)c1n[nH]c(=S)[nH]c1=O`, which T/C [3] is on record?
The T/C was 111 % of control.

And the T/C [4]?
The T/C was 100 % of control.

And the T/C [5]?
Its T/C is 104 % of control.

And the T/C [6]?
The T/C was 101 % of control.

And the T/C [7]?
Its T/C is 101 % of control.

What about the T/C [8] of the same molecule?
The T/C was 101 % of control.

`N#C/C(C(N)=O)=C1/C(=O)Nc2ccccc21` was tested. Which T/C [3] did it give?
Its T/C is 103 % of control.

And the T/C [5]?
The T/C was 98 % of control.

What about the T/C [7] of the same molecule?
The T/C was 94 % of control.

How did the T/C (dose: 3.75 mg/kg/injection, schedule: Q01DX005 (ip), vehicle: Klucel (hydroxypropylcellulose) (HPC)) turn out when `CCOC(=O)c1ccc(NC(=O)Nc2ccccc2OC)cc1` was run?
Its T/C is 94 % of control.

And the T/C (dose: 7.5 mg/kg/injection, schedule: Q01DX005 (ip), vehicle: Klucel (hydroxypropylcellulose) (HPC))?
The T/C was 97 % of control.

What about the T/C (dose: 15.0 mg/kg/injection, schedule: Q01DX005 (ip), vehicle: Klucel (hydroxypropylcellulose) (HPC)) of the same molecule?
Its T/C is 92 % of control.

What about the T/C (dose: 60.0 mg/kg/injection, schedule: Q01DX005 (ip), vehicle: Klucel (hydroxypropylcellulose) (HPC)) of the same molecule?
The T/C was 88 % of control.

And the T/C (dose: 240.0 mg/kg/injection, schedule: Q01DX005 (ip), vehicle: Klucel (hydroxypropylcellulose) (HPC))?
The T/C was 86 % of control.

Which T/C (dose: 60.0 mg/kg/injection, schedule: Q01DX005 (ip), vehicle: saline) does the source give for `O=C(/C=C/c1ccccc1)C/C(=N/O)C(=O)NO` here?
The T/C was 104 % of control.

And the T/C (dose: 120.0 mg/kg/injection, schedule: Q01DX005 (ip), vehicle: saline)?
The T/C was 101 % of control.

And the T/C (dose: 240.0 mg/kg/injection, schedule: Q01DX005 (ip), vehicle: saline)?
The T/C was 103 % of control.

What does the source list for `O=c1[nH]c(=O)n(C2CC(O)C(CO)O2)cc1F` (stereo unspecified)?
T/C (dose: 10.0 mg/kg/injection, schedule: Q01DX010 (ip), vehicle: saline): 163 % of control; T/C (dose: 12.5 mg/kg/injection, schedule: Q04DX002 (ip), vehicle: water): 108 % of control; T/C (dose: 20.0 mg/kg/injection, schedule: Q01DX009 (ip), vehicle: saline): 155 % of control; T/C (dose: 20.0 mg/kg/injection, schedule: Q01DX010 (ip), vehicle: saline): 181 % of control; T/C (dose: 38.0 mg/kg/injection, schedule: Q01DX009 (ip), vehicle: saline): 160 % of control; T/C (dose: 40.0 mg/kg/injection, schedule: Q01DX009 (ip), vehicle: saline): 117 % of control; T/C (dose: 40.0 mg/kg/injection, schedule: Q01DX010 (ip), vehicle: saline): 222 % of control; T/C (dose: 49.0 mg/kg/injection, schedule: Q01DX009 (ip), vehicle: saline): 159 % of control and 167 % of control; T/C [4]: 114 % of control; T/C (dose: 56.0 mg/kg/injection, schedule: Q01DX009 (ip), vehicle: saline): 123 % of control; T/C (dose: 75.0 mg/kg/injection, schedule: Q01DX009 (ip), vehicle: saline): 185 % of control; T/C (dose: 80.0 mg/kg/injection, schedule: Q01DX009 (ip), vehicle: saline): 92 % of control; T/C [9]: 110 % of control; T/C [6]: 98 % of control; T/C (dose: 110.0 mg/kg/injection, schedule: Q01DX009 (ip), vehicle: saline): 103 % of control; T/C (dose: 120.0 mg/kg/injection, schedule: Q01DX009 (ip), vehicle: saline): 81 % of control; T/C (dose: 180.0 mg/kg/injection, schedule: Q01DX009 (ip), vehicle: saline): 83 % of control; T/C (dose: 200.0 mg/kg/injection, schedule: Q01DX001 (ip), vehicle: saline): 111 % of control; T/C [8]: 95 % of control; T/C (dose: 240.0 mg/kg/injection, schedule: Q04DX002 (ip), vehicle: saline): 157 % of control; T/C (dose: 350.0 mg/kg/injection, schedule: Q04DX003 (ip), vehicle: saline): 168 % of control; T/C (dose: 400.0 mg/kg/injection, schedule: Q04DX002 (ip), vehicle: saline): 164 % of control; T/C (dose: 400.0 mg/kg/injection, schedule: Q04DX003 (ip), vehicle: saline): 100 % of control

Which T/C (dose: 12.5 mg/kg/injection, schedule: Q01DX009 (ip), vehicle: other) does the source give for `COc1ccc2c(c1)C(=O)C1(CC2)OC1c1cccnc1` (stereo unspecified) here?
Its T/C is 110 % of control.

What about the T/C (dose: 25.0 mg/kg/injection, schedule: Q01DX009 (ip), vehicle: other) of the same molecule?
Its T/C is 115 % of control.

And the T/C (dose: 50.0 mg/kg/injection, schedule: Q01DX009 (ip), vehicle: other)?
The T/C was 100 % of control and 117 % of control.

And the T/C (dose: 100.0 mg/kg/injection, schedule: Q01DX009 (ip), vehicle: other)?
Its T/C is 115 % of control and 117 % of control.

And the T/C (dose: 200.0 mg/kg/injection, schedule: Q01DX009 (ip), vehicle: other)?
Its T/C is 94 % of control.

What about the T/C (dose: 400.0 mg/kg/injection, schedule: Q01DX009 (ip), vehicle: other) of the same molecule?
The T/C was 99 % of control.

With `CC1(C)Cc2nn3c(c2C(=O)O1)CC(c1ccccc1)c1ccccc1-3` (stereo unspecified) as the molecule, how does the T/C (dose: 100.0 mg/kg/injection, schedule: Q01DX001 (ip), vehicle: saline with Tween-80) read?
Its T/C is 90 % of control.

What about the T/C (dose: 200.0 mg/kg/injection, schedule: Q01DX001 (ip), vehicle: saline with Tween-80) of the same molecule?
Its T/C is 89 % of control.

What about the T/C (dose: 400.0 mg/kg/injection, schedule: Q01DX001 (ip), vehicle: saline with Tween-80) of the same molecule?
Its T/C is 96 % of control.

For `CCCCCCC(=O)/C=C/c1ccccc1O`, which T/C (dose: 50.0 mg/kg/injection, schedule: Q01DX009 (ip), vehicle: saline) is on record?
The T/C was 108 % of control.

What about the T/C (dose: 100.0 mg/kg/injection, schedule: Q01DX009 (ip), vehicle: saline) of the same molecule?
Its T/C is 99 % of control.

What about the T/C (dose: 200.0 mg/kg/injection, schedule: Q01DX009 (ip), vehicle: saline) of the same molecule?
Its T/C is 112 % of control.

What does the source list for `CN(C)CCN(Cc1ccc(Cl)s1)c1ccccn1`?
T/C [4]: 101 % of control; T/C [6]: 99 % of control

What does the source list for `Cc1cc(N/N=C(\c2ccccc2)c2ccccn2)nc2ccccc12`?
T/C [10]: 104 % of control; T/C [11]: 103 % of control; T/C [12]: 94 % of control

For `CC1N(C)c2cc([N+](=O)[O-])ccc2C1(C)C` (stereo unspecified), which T/C [10] is on record?
The T/C was 95 % of control.

And the T/C [11]?
Its T/C is 100 % of control.

And the T/C [12]?
The T/C was 87 % of control.

With `O=C(NO)c1ccccc1` as the molecule, how does the T/C (dose: 25.0 mg/kg/injection, schedule: Q01DX009 (ip), vehicle: Klucel (hydroxypropylcellulose) (HPC)) read?
The T/C was 98 % of control.

And the T/C (dose: 50.0 mg/kg/injection, schedule: Q01DX001 (ip), vehicle: saline)?
Its T/C is 102 % of control.

What about the T/C (dose: 50.0 mg/kg/injection, schedule: Q01DX009 (ip), vehicle: Klucel (hydroxypropylcellulose) (HPC)) of the same molecule?
Its T/C is 98 % of control.

What about the T/C (dose: 50.0 mg/kg/injection, schedule: Q01DX009 (ip), vehicle: saline with Tween-80) of the same molecule?
Its T/C is 103 % of control.

And the T/C (dose: 50.0 mg/kg/injection, schedule: Q04DX003 (ip), vehicle: saline with Tween-80)?
Its T/C is 106 % of control.

What about the T/C [9] of the same molecule?
The T/C was 102 % of control.

What about the T/C (dose: 100.0 mg/kg/injection, schedule: Q01DX009 (ip), vehicle: Klucel (hydroxypropylcellulose) (HPC)) of the same molecule?
Its T/C is 107 % of control.

What about the T/C (dose: 100.0 mg/kg/injection, schedule: Q04DX003 (ip), vehicle: saline with Tween-80) of the same molecule?
Its T/C is 102 % of control.

What about the T/C (dose: 200.0 mg/kg/injection, schedule: Q01DX009 (ip), vehicle: Klucel (hydroxypropylcellulose) (HPC)) of the same molecule?
Its T/C is 116 % of control.

What about the T/C (dose: 200.0 mg/kg/injection, schedule: Q01DX009 (ip), vehicle: saline with Tween-80) of the same molecule?
Its T/C is 103 % of control.

What about the T/C (dose: 200.0 mg/kg/injection, schedule: Q04DX003 (ip), vehicle: saline with Tween-80) of the same molecule?
The T/C was 102 % of control.

What about the T/C (dose: 400.0 mg/kg/injection, schedule: Q01DX009 (ip), vehicle: Klucel (hydroxypropylcellulose) (HPC)) of the same molecule?
The T/C was 114 % of control.

And the T/C (dose: 400.0 mg/kg/injection, schedule: Q04DX003 (ip), vehicle: saline with Tween-80)?
Its T/C is 109 % of control.

What does the source list for `N#CC1(C#N)C(C#N)(C#N)C12CCCCCC2`?
T/C (dose: 12.5 mg/kg/injection, schedule: Q04DX003 (ip), vehicle: Klucel (hydroxypropylcellulose) (HPC)): 106 % of control; T/C (dose: 25.0 mg/kg/injection, schedule: Q04DX003 (ip), vehicle: Klucel (hydroxypropylcellulose) (HPC)): 112 % of control; T/C (dose: 50.0 mg/kg/injection, schedule: Q04DX003 (ip), vehicle: Klucel (hydroxypropylcellulose) (HPC)): 95 % of control
